Consider three molecules from ChEMBL document CHEMBL5335812, “PSMA-targeted SMART molecules outfitted with SN38” (Bioorg Med Chem Lett, 2024).

Molecules are shown by their SMILES. Activity calls are given as the source filed them. The calls are words filed in the database; no cut-off is given here.

Series [1] is described as follows: Drug metabolism in human PC-3 cells with PSMA knockout assessed as intracellular SN38 release incubated for 30 min by confocal microscopy. It is filed as ADME, cell-based. Conditions: pc-3, 0.5 h.
The subject of a further series is PC-3. Put plainly: Antiproliferative activity against human PC-3 cells with PSMA knockout assessed as reduction in cell viability incubated for 72 hrs by cellTiter-Glo Luminescent cell viability assay. It is filed as functional, cell-based. On the technique in general: In ATP-based viability assays light output follows the ATP content of the culture.
Series [2] is described as follows: Drug metabolism in human C4-2B cells expressing PSMA assessed as payload release incubated for 30 min by confocal microscopy. Type of series: ADME, cell-based. The settings on record: lncap c4-2b, 0.5 h.
The test system of another series is LNCaP C4-2B. As to the kind of experiment: Antiproliferative activity against human C4-2B cells expressing PSMA assessed as reduction in cell viability incubated for 72 hrs by cellTiter-Glo Luminescent cell viability assay.
The nature of series [3]: Stability of the compound assessed as payload release at pH 7.4 measured after 18 hrs by fluorescence based analysis. It is filed as physicochemical. Conditions: buffer, pH 7.4, 18 h.
Series [4] is described as follows: Stability of the compound assessed as payload release at pH 5.5 measured after 18 hrs by fluorescence based analysis. It is filed as physicochemical. Conditions: buffer, pH 5.5, 18 h.
Series [5] is described as follows: Stability of the compound assessed as payload release at pH 5.0 measured after 18 hrs by fluorescence based analysis. It is filed as physicochemical. Conditions: buffer, pH 5, 18 h.
Series [6] is described as follows: Stability of the compound assessed as hydrolysis at pH 7.4 measured after 8 hrs by 31P NMR. Type of series: physicochemical. The settings on record: buffer, pH 7.4, 8 h.
A short description of series [7]: Stability of the compound assessed as kinetic half life at pH 6. Conditions: buffer. It is filed as physicochemical.
Series [8] is described as follows: Stability of the compound at pH 7.4. It is filed as physicochemical. The settings on record: buffer.
The nature of series [9]: Stability of the compound assessed as kinetic half life at pH 5.5. The settings on record: buffer. Type of series: physicochemical.
Series [10] can be described thus: Stability of the compound assessed as kinetic half life at pH 4.5. It is filed as physicochemical. The settings on record: buffer.
A short description of series [11]: Stability of the compound assessed as kinetic half life at pH 5. Conditions: buffer. It is filed as physicochemical.

`CCc1c2c(nc3ccc(OC(=O)N(C)CCN(C)P(=O)(O)OCC[C@H](NC(=O)c4ccc(Cn5nnc6c5-c5ccccc5CN(C(=O)CCC(=O)NCCOCCOCCOCCOCCC(=O)NCCCCCC(=O)N[C@@H](CCC(=O)N[C@@H](CCCOP(=O)(O)N[C@@H](CCC(=O)O)C(=O)O)C(=O)O)C(=O)O)c5ccccc5-6)cc4)C(=O)O)cc13)-c1cc3c(c(=O)n1C2)COC(=O)[C@]3(O)CC`: the Drug metabolism entry in [1] is recorded as “Metabolite_Notdetected”; in series [2], “Metabolite_Detected”. Besides, the outcome in the series with PC-3 was inactive. For the same molecule, the IC50 in the series with LNCaP C4-2B worked out at 3 nM.

On to `CCc1c2c(nc3ccc(O)cc13)-c1cc3c(c(=O)n1C2)COC(=O)[C@]3(O)CC` [7-ETHYL-10-HYDROXYCAMPTOTHECIN], for which the Stability entry in series [3] is “Stable”. In addition, the results for the Activity in series [4] and in [5] were ~ 25% and 25%, respectively.

In the case of `CCc1c2c(nc3ccc(OC(=O)N(C)CCN(C)P(=O)(O)OCC[C@H](NC(=O)c4ccc(CN=[N+]=[N-])cc4)C(=O)O)cc13)-c1cc3c(c(=O)n1C2)COC(=O)[C@]3(O)CC`, the Stability entry in [6] and in [8] was “Stable” each time. Besides, the half-life in series [7] is 42 h; in [9], 11 h; in [10] it was 1.9 h; in [11] it was 4.3 h.

As a reminder, the IC50 is the midpoint of a concentration-inhibition curve. One may read the half-life as how long it takes for the measured level to halve.
